In patent US10143642B2, “Sunscreen molecule and compositions thereof” (Conopco, Inc., priority 2013, dated 2018):

Assay: Stability of sunscreen actives on HPTLC plates exposed to UV radiation (densitometry)
Assay type: physicochemical
Conditions: HPTLC plate, densitometry scan at 357 nm; for % active, 0 hr: UV radiation 5.5 mW/cm^2, 0 hr exposure; for % active, 1 hr: UV radiation 5.5 mW/cm^2, 1 hr exposure; for % active, 2 hr: UV radiation 5.5 mW/cm^2, 2 hr exposure
Description: Sunscreen actives singly or as combinations as shown in Table-1 were checked for stability using the following procedure:
The method was based on spotting the HPTLC plates (in duplicate) with the sunscreen molecules of interest along with potential quencher molecules or formulations. The plate is then exposed to UV radiation (intensity 5.5 mW/cm^2) for 120 minutes. Following this the chromatographic separation was carried out using appropriate solvent system. Densitometry analysis is done to determine the amount of sunscreen degraded. Stock solutions were prepared in methanol following the ratios as mentioned in the following table. 14 μL of stock solutions were loaded (3 mm width; 16 mm separation) on a 10×10 cm F254 HPTLC plate, using CAMAG LINOMAT 5 applicator equipped with a 100 μL micro-syringe (Hamilton, Switzerland). Ascending chromatography was performed at a distance of 85 mm in a TLC chamber using n-hexane-ethyl acetate 9:1 (v/v) as the mobile phase (˜10 mL). The plates were dried at room temperature and subjected to ultraviolet absorption densitometry scan. The concentration dependent fluorescent bands due to presence of sunscreens were detected with a linear scan at 357 nm, using Camag TLC Scanner 3, in the presence of deuterium source. Slit width of 8×0.4 mm and scanning rate of 20 mm s^−1 were maintained during each densitometry scan. Concentrations of Parsol 1789 & the compound of present invention on each lane were determined from densitogram peak areas; prior and after the sun exposure using Win CATS Planar chromatography manager software.

| SMILES | % active, 0 hr [%] | % active, 1 hr [%] | % active, 2 hr [%] |
| --- | --- | --- | --- |
| COc1ccc(/C(O)=C/C(=O)c2ccc(C(C)(C)C)cc2)cc1 [Example 1, Parsol 1789] | 100 | 28 | 5 |
| COC(=O)CCC(C)C1CCC2C3C(OC(=O)COc4ccc(C(=O)/C=C(\O)c5ccc(C(C)(C)C)cc5)cc4)C[C@@H]4CC(OC(=O)C(C#N)=C(c5ccccc5)c5ccccc5)CCC4(C)C3CCC12C (stereo partly drawn) [Example 5, UVB & UVA modified methyl ester of chenodeoxy cholic acid] | 100 | 93 | 86 |
